In brackets after ≈: the same amount, converted by molar mass. Several values for one entry are separate records, joined by “and”; a condition that tells them apart may be missing. Identical values can stand only once. Like-named read-outs stand apart in the source and are kept apart here.
Assays:
[1] = test system: C. albicans ATCC 90819(R) (strain G); type: cell-based, Candida albicans; settings: strain G = C. albicans ATCC 90819(R); MIC-0; 48 h; listed as printed without letter, below G
[2] = test system: C. albicans ATCC 10231(R) (strain B); type: cell-based, Candida albicans
[3] = test system: C. glabrata ATCC 2001 (strain H) pre-formed biofilm; experiment: Disruption of pre-formed biofilm (XTT); type: cell-based, Candida glabrata; settings: for Pre-formed biofilm SMIC90: biofilm treated at 24 h, XTT
[4] = test system: C. albicans ATCC MYA-1003(R) (strain A); type: cell-based, Candida albicans; settings: strain A = C. albicans ATCC MYA-1003(R); MIC-0; 48 h at 35° C.
[5] = test system: C. auris AR Bank # 0383 (strain III); experiment: MIC determination (broth microdilution); type: cell-based, Candida auris; settings: strain III = C. auris AR Bank # 0383; MIC-0; 48 h (CAS read at 24 h)
[6] = test system: C. albicans ATCC MYA-1237(R) (strain C); type: cell-based, Candida albicans; settings: strain C = C. albicans ATCC MYA-1237(R); MIC-0; 48 h; listed as printed beside letter D
[7] = test system: C. auris AR Bank # 0382 (strain II); experiment: MIC determination (broth microdilution); type: cell-based, Candida auris; settings: strain II = C. auris AR Bank # 0382; MIC-0; 48 h (CAS read at 24 h)
BEAS-2B = experiment: Mammalian cytotoxicity assay (resazurin cell viability); type: cell-based; settings: BEAS-2B (human bronchial epithelial); read-out: IC50 for mammalian cell lines
Text: (§1) For cytotoxicity assays, the human embryonic kidney cell line (HEK-293) was purchased from the ATCC. The human bronchial epithelial cell line (BEAS-2B), the human lung carcinoma cell line (A549), and the mouse macrophage cell line (J774A.1) were generous gifts from Prof. David K. Orren (University of Kentucky, Lexington, Ky.), Prof. Markos Leggas (University of Kentucky, Lexington, Ky.), and Prof. David J. Feola (University of Kentucky, Lexington, Ky.), respectively. A549, HEK-293, and BEAS-2B cells were cultured in Dulbecco's Modified Eagle's Medium (DMEM, catalog #VWRL0100, VWR, Chicago, Ill.) supplemented with 10% fetal bovine serum (FBS; from ATCC) and 1% penicillin/streptomycin (from ATCC) at 37° C. with 5% CO2. The J774A.1 cells were cultured in DMEM (catalog #30-2002, ATCC, Manassas, Va.), which was also supplemented with FBS and antibiotics and grown at 37° C. with 5% CO2.
(§2) To examine whether the compounds are safe for human cells, cytotoxicity assays were done against four mammalian cell lines: HEK-293, A549, BEAS-2B, and J774A.1 cells. […] HEK-293 and J774A.1 cells were plated at 1×10^4 cells/mL while A549 and BEAS-2B were plated at 3×10^3 cells/mL. Compounds were tested in concentrations ranging from 0.06 to 15.6 μg/mL with final concentration of DMSO at 0.5% (FIG. 4A-D).

A549 = experiment: as above; type: cell-based; settings: A549 (human lung carcinoma); read-out: IC50 for mammalian cell lines
Text: as §1, §2

HEK-293 = experiment: as above; type: cell-based; settings: HEK-293 (human embryonic kidney); read-out: IC50 for mammalian cell lines
Text: as §1, §2

J774A.1 = experiment: as above; type: cell-based; settings: J774A.1 (murine macrophage); read-out: IC50 for mammalian cell lines
Text: as §1, §2

[8] = test system: C. auris AR Bank # 0390 (strain L); experiment: MIC determination (broth microdilution); type: cell-based, Candida auris; settings: strain L = C. auris AR Bank # 0390; MIC-0; 48 h (CAS read at 24 h); Table 1 row printed without letter, below L; also in Table 2
[9] = test system: C. auris AR Bank # 0389 (strain VIII); experiment: MIC determination (broth microdilution); type: cell-based, Candida auris; settings: strain VIII = C. auris AR Bank # 0389; MIC-0; 48 h (CAS read at 24 h)
[10] = test system: C. auris AR Bank # 0384 (strain K) pre-formed biofilm; type: cell-based, Candida auris; settings: biofilm treated at 24 h, XTT
[11] = test system: C. neoformans CN2 (strain O); experiment: MIC determination (broth microdilution); type: cell-based, Cryptococcus neoformans; settings: MIC-0, 72 h at 35° C.
[12] = test system: C. glabrata ATCC 2001 (strain H) biofilm; experiment: Prevention of biofilm formation (XTT); type: cell-based, Candida glabrata; settings: treated at 0 h
[13] = test system: C. auris AR Bank # 0384 (strain K); experiment: MIC determination (broth microdilution); type: cell-based, Candida auris; settings: strain K = C. auris AR Bank # 0384; MIC-0; 48 h (CAS read at 24 h); Table 1; also in Table 2
[14] = test system: C. auris AR Bank # 0384 (strain K) biofilm; type: cell-based, Candida auris; settings: treated at 0 h, XTT
[15] = test system: C. auris AR Bank # 0390 (strain L) biofilm; type: cell-based, Candida auris; settings: treated at 0 h, XTT
[16] = test system: C. albicans ATCC 10231 (strain B) pre-formed biofilm; experiment: Disruption of pre-formed biofilm (XTT); type: cell-based, Candida albicans; settings: for Pre-formed biofilm SMIC90: biofilm treated at 24 h, XTT
[17] = test system: C. parapsilosis ATCC 22019 (strain J); experiment: MIC determination (broth microdilution); type: cell-based; settings: strain J = C. parapsilosis ATCC 22019; MIC-0; 48 h; listed as printed beside letter K
[18] = test system: A. terreus ATCC MYA-3633 (strain R); type: cell-based, Aspergillus terreus; settings: strain R = A. terreus ATCC MYA-3633; MIC-0; 72 h at 35° C.
[19] = strain B = C. albicans ATCC 10231(R), MIC-0, 48 h, listed as split over r8 and r9 (r9 printed beside letter C)

Row | Compound | MIC [1] | MIC (in parentheses) [1] | Pre-formed biofilm SMIC90 [3] | MIC [4] | MIC (in parentheses) [4] | MIC [6] | MIC (in parentheses) [6] | MIC [8] | MIC (in parentheses) [8] | Pre-formed biofilm SMIC90 [10] | MIC [11] | MIC (in parentheses) [11] | Biofilm prevention SMIC90 [12] | MIC [13] | MIC (in parentheses) [13] | Biofilm prevention SMIC90 [14] | Biofilm prevention SMIC90 [15] | Pre-formed biofilm SMIC90 [16] | MIC [17] | MIC (in parentheses) [17] | also measured
1 | bis-[1,2-bis[(2S,5S)-2,5-dimethylphospholano]benzene]gold(I) [Compound 4] | 0.98 µg/mL | 1.2 µM | 7.8 µg/mL | 0.98 µg/mL | 1.2 µM | 0.98 µg/mL | 1.2 µM | 7.8 µg/mL | 9.2 µM | 7.8 µg/mL | 0.98 µg/mL | 1.2 µM | 3.9 µg/mL | 3.9 µg/mL and 3.96 µg/mL | 4.6 µM | 3.9 µg/mL | 3.9 µg/mL | 7.8 µg/mL | 0.98 µg/mL | 1.2 µM | MIC [2]: 1.95 (2.3) μg/mL; MIC (in parentheses) [2]: 1.95 (2.3) μM; SMIC90 of pre-formed biofilm relative to MIC with planktonic cells [3]: 4 fold; MIC [5]: 1.95 µg/mL; MIC (in parentheses) [5]: 2.3 µM; MIC [7]: 1.95 µg/mL; MIC (in parentheses) [7]: 2.3 µM; IC50 (BEAS-2B): 2000 ± 300 nM; IC50 (A549): 4500 nM; IC50 (HEK-293): 1900 ± 700 nM; IC50 (J774A.1): 1500 ± 100 nM; MIC [9]: 1.95 µg/mL; MIC (in parentheses) [9]: 2.3 µM; SMIC90 of pre-formed biofilm relative to MIC with planktonic cells [16]: 4 fold; MIC [18]: 1.95 µg/mL; MIC (in parentheses) [18]: 2.3 µM
2 | CC(=O)OC[C@H]1O[C@@H]([S-])[C@H](OC(C)=O)[C@@H](OC(C)=O)[C@@H]1OC(C)=O.CCP(CC)CC.[Au+] [Auranofin, auranofin, reference compound] | > 31.3 µg/mL | > 46.1 µM | >31.3 µg/mL | > 31.3 µg/mL | > 46.1 µM | > 31.3 µg/mL | > 46.1 µM | > 31.3 µg/mL | > 46.1 µM | >31.3 µg/mL | 7.8 µg/mL | 11.5 µM | 31.3 µg/mL | > 31.3 µg/mL | > 46.1 µM | >31.3 µg/mL | >31.3 µg/mL | 7.8 µg/mL | > 31.3 µg/mL | > 46.1 µM | MIC [2, 19]: > 31.3 µg/mL; MIC (in parentheses) [2, 19]: > 46.1 µM; Pre-formed biofilm SMIC90 ([3]; listed as auranofin): inactive; IC50 (BEAS-2B): 1300 ± 100 nM; IC50 (A549): 500 ± 100 nM; IC50 (HEK-293): 3000 ± 200 nM; IC50 (J774A.1): 16200 nM; Pre-formed biofilm SMIC90 ([16]; listed as auranofin): the same SMIC90 as compound 4; MIC [18]: 7.8 µg/mL; MIC (in parentheses) [18]: 11.5 µM
3 | bis-[1,2-bis[(2R,5R)-2,5-dimethylfphospholano]benzene]gold(1) [Compound 6] | 0.49 µg/mL | 0.6 µM | 3.9 µg/mL | 0.49 µg/mL | 0.6 µM | 0.98 µg/mL | 1.2 µM | 1.95 µg/mL | 2.3 µM | 7.8 µg/mL | 0.49 µg/mL | 0.6 µM | 1.95 µg/mL | 1.95 µg/mL | 2.3 µM | 3.9 µg/mL | 3.9 µg/mL | 3.9 µg/mL | 0.49 µg/mL | 0.6 µM | MIC [2]: 0.98 (1.2) μg/mL; MIC (in parentheses) [2]: 0.98 (1.2) μM; SMIC90 of pre-formed biofilm relative to MIC with planktonic cells [3]: 4 fold; MIC [5]: 3.9 µg/mL; MIC (in parentheses) [5]: 4.6 µM; MIC [7]: 0.98 µg/mL; MIC (in parentheses) [7]: 1.2 µM; IC50 (BEAS-2B): 4900 ± 300 nM; IC50 (A549): 2500 ± 200 nM; IC50 (HEK-293): 5700 ± 500 nM; IC50 (J774A.1): 1500 ± 100 nM; MIC [9]: 1.95 µg/mL; MIC (in parentheses) [9]: 2.3 µM; SMIC90 of pre-formed biofilm relative to MIC with planktonic cells [16]: 4 fold; MIC [18]: 3.9 µg/mL; MIC (in parentheses) [18]: 4.6 µM
4 | C[C@@H]1[C@H](O)[C@@H](C)/C=C/C=C/C=C/C=C/C=C/C=C/C=C/[C@H](O[C@@H]2O[C@H](C)[C@@H](O)[C@H](N)[C@@H]2O)C[C@@H]2O[C@](O)(C[C@@H](O)C[C@@H](O)[C@H](O)CC[C@@H](O)C[C@@H](O)CC(=O)O[C@H]1C)C[C@H](O)[C@H]2C(=O)O [AmB, amphotericin B, reference compound] | 0.98 µg/mL (≈ 1.06 µM) | 1.1 µM (≈ 1.02 µg/mL) | 7.8 µg/mL | 0.98 µg/mL (≈ 1.06 µM) | 1.1 µM (≈ 1.02 µg/mL) | 3.9 µg/mL (≈ 4.22 µM) | 4.2 µM (≈ 3.88 µg/mL) | 1.95 µg/mL (≈ 2.11 µM) | 2.1 µM (≈ 1.94 µg/mL) | 1.95 µg/mL | 1.95 µg/mL (≈ 2.11 µM) | 2.1 µM (≈ 1.94 µg/mL) | 0.98 µg/mL | 1.95 µg/mL (≈ 2.11 µM) | 2.1 µM (≈ 1.94 µg/mL) | 1.95 µg/mL | 1.95 µg/mL | 31.3 µg/mL | 3.9 µg/mL (≈ 4.22 µM) | 4.2 µM (≈ 3.88 µg/mL) | MIC [2, 19]: 1.95 µg/mL (≈ 2.11 µM); MIC (in parentheses) [2, 19]: 2.1 µM (≈ 1.94 µg/mL); SMIC90 of pre-formed biofilm relative to MIC with planktonic cells [3]: 2 fold; MIC [5]: 1.95 µg/mL (≈ 2.11 µM); MIC (in parentheses) [5]: 2.1 µM (≈ 1.94 µg/mL); MIC [7]: 0.98 µg/mL (≈ 1.06 µM); MIC (in parentheses) [7]: 1.1 µM (≈ 1.02 µg/mL); MIC [9]: 1.95 µg/mL (≈ 2.11 µM); MIC (in parentheses) [9]: 2.1 µM (≈ 1.94 µg/mL); SMIC90 of pre-formed biofilm relative to MIC with planktonic cells [16]: 32 fold; MIC [18]: 7.8 µg/mL (≈ 8.44 µM); MIC (in parentheses) [18]: 8.4 µM (≈ 7.76 µg/mL)
